From patent EP1978023A1, “Pyridazines as fungicides” (Bayer CropScience Aktiengesellschaft, priority 2007, dated 2008)

Assays:
[1] = physchem
[2] = HPLC reversed-phase C 18; 40°C; 0.1% aqueous formic acid and acetonitrile, linear gradient 10% to 95% acetonitrile

Row | Compound | chromatographic logP [1] | log p [2]
1 | CC1(O)OC(=O)C(c2cccs2)=C1c1ccc(Cl)s1 (stereo not shown) [(3), 4-(5-Chlor-2-thienyl)-3-(2-thienyl)-5-hydroxy-5-methylfuran-2(5H)-on] | 2.9 | –
2 | Cc1n[nH]c(=O)c(-c2cccs2)c1-c1ccc(Cl)s1 [(4), 5-(5-Chlor-2-thienyl)-4-(2-thienyl)-6-methylpyridazin-3(2H)-on] | 2.71 | –
3 | Cc1nnc(Cl)c(-c2cccs2)c1-c1ccc(Cl)s1 [Beispiel 11, 3-Chlor-5-(5-chlor-2-thienyl)-4-(2-thienyl)-6-methylpyridazin] | 3.56 | 3,56
